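Protocol summary: plate cells (96-well), add compound at 5 concentrations, incubate 48 h, interpolate endpoints linearly. TGI: total growth inhibition.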
Columns and labels:
Assay in all cases: NCI tumour cell line growth inhibition, 48 h
A498 renal = tested on: A498 renal
A549 NSCLC = tested on: A549 NSCLC
ACHN renal = tested on: ACHN renal
EKVX NSCLC = tested on: EKVX NSCLC
HL-60(TB) leukemia = tested on: HL-60(TB) leukemia
HOP-92 NSCLC = tested on: HOP-92 NSCLC
LOX IMVI melanoma = tested on: LOX IMVI melanoma
MOLT-4 leukemia = tested on: MOLT-4 leukemia
OVCAR-8 ovarian = tested on: OVCAR-8 ovarian
RXF 393 renal = tested on: RXF 393 renal
SF-539 CNS = tested on: SF-539 CNS
SK-MEL-5 melanoma = tested on: SK-MEL-5 melanoma
SN12C renal = tested on: SN12C renal
SNB-75 CNS = tested on: SNB-75 CNS
TK-10 renal = tested on: TK-10 renal
UACC-257 melanoma = tested on: UACC-257 melanoma
UACC-62 melanoma = tested on: UACC-62 melanoma
NCI-H23 lung = tested on: NCI-H23 lung

SMILES | TGI (A498 renal) | TGI (A549 NSCLC) | TGI (ACHN renal) | TGI (EKVX NSCLC) | TGI (HL-60(TB) leukemia) | TGI (HOP-92 NSCLC) | TGI (LOX IMVI melanoma) | TGI (MOLT-4 leukemia) | TGI (OVCAR-8 ovarian) | TGI (RXF 393 renal) | TGI (SF-539 CNS) | TGI (SK-MEL-5 melanoma) | TGI (SN12C renal) | TGI (SNB-75 CNS) | TGI (TK-10 renal) | TGI (UACC-257 melanoma) | TGI (UACC-62 melanoma) | TGI (NCI-H23 lung)
O=c1[nH]c(=O)n(COCCO)c2ccc(Br)cc12 | > 100 µM | > 100 µM | > 100 µM | > 100 µM | > 100 µM | > 100 µM | > 100 µM | > 100 µM | > 100 µM | > 100 µM | > 100 µM | > 100 µM | > 100 µM | > 100 µM | > 100 µM | > 100 µM | > 100 µM | 
NC1=NNC2(C(=O)N1)c1ccccc1-c1ccccc12 | > 10 µM | > 10 µM | > 10 µM |  | > 10 µM | > 10 µM | > 10 µM | > 10 µM | > 10 µM | > 10 µM | > 10 µM | > 10 µM | > 10 µM | > 10 µM | > 10 µM |  |  | > 10 µM
CCC(CC)n1cc(C(=O)NC(=O)NCCCCCOC(=O)CCCCCCCCCCC(=O)OCCCCCNC(=O)NC(=O)c2cn(C(CC)CC)c(=O)[nH]c2=O)c(=O)[nH]c1=O | > 100 µM | > 100 µM | > 100 µM | > 100 µM | > 100 µM | > 100 µM | > 100 µM | > 100 µM | > 100 µM | > 100 µM | > 100 µM | > 100 µM | > 100 µM | 53.5 µM | > 100 µM | > 100 µM | > 100 µM | > 100 µM
CCN(CC)CCC1CCCCN1CC(=O)N1c2ccccc2NC(=O)c2ccccc21 (configuration not stated) | > 100 µM | > 100 µM | > 100 µM | > 100 µM | > 100 µM | > 100 µM | > 100 µM | > 100 µM | > 100 µM | > 100 µM | > 100 µM | > 100 µM | > 100 µM | 92.6 µM | > 100 µM | > 100 µM | > 100 µM | > 100 µM
CCn1c2ccccc2c2ccc3c(c21)C(=O)c1ccccc1C3=O | > 100 µM | > 100 µM | > 100 µM | > 100 µM | > 100 µM | > 100 µM |  | > 100 µM | > 100 µM | > 100 µM | > 100 µM | > 100 µM | > 100 µM | > 100 µM |  | > 100 µM | > 100 µM | > 100 µM
O=C(Cc1ccccc1)NN1C(=O)C(Cl)C1c1ccc([N+](=O)[O-])cc1 (configuration not stated) |  | > 100 µM | > 100 µM | > 100 µM | > 100 µM |  | > 100 µM | > 100 µM | > 100 µM | > 100 µM |  | > 100 µM | > 100 µM | > 100 µM | > 100 µM | > 100 µM | > 100 µM | > 100 µM
COc1cc2c(cc1OC)CC(=O)c1cc(OC)c(OC)cc1/C=C\2 | > 12.5 µM | > 12.5 µM | > 12.5 µM | > 12.5 µM | 7.05 µM | > 12.5 µM | > 12.5 µM | > 12.5 µM | > 12.5 µM | > 12.5 µM | > 12.5 µM | > 12.5 µM | > 12.5 µM | > 12.5 µM | > 12.5 µM | > 12.5 µM | > 12.5 µM | > 12.5 µM
CN=CN(C)c1c2ccccc2nc2ccccc12 | > 100 µM | > 100 µM | > 100 µM | > 100 µM | > 100 µM | > 100 µM | > 100 µM | > 100 µM | > 100 µM | > 100 µM | > 100 µM | > 100 µM | > 100 µM | > 100 µM | > 100 µM | > 100 µM | > 100 µM | > 100 µM
C(=Nc1ccc(-c2cc(-c3ccccc3)nc3ccc4ccccc4c23)cc1)c1ccccc1 | 70.3 µM | 62.2 µM | > 100 µM | 92.8 µM | > 100 µM |  | > 100 µM | > 100 µM | > 100 µM | 47.9 µM | 66.3 µM | 42.3 µM | > 100 µM | > 100 µM | 74.6 µM | 92.1 µM | 62.1 µM | > 100 µM
COc1ccc(N(C)Sc2ccccc2)cc1 |  | > 100 µM |  |  | 52.3 µM | > 100 µM | > 100 µM | 75.6 µM | > 100 µM | 53.4 µM | 56 µM | > 100 µM | 75.3 µM |  | > 100 µM | > 100 µM | > 100 µM | > 100 µM
CC(O)(/C=C/c1ccccc1)P(=O)(O)c1ccccc1 (configuration not stated) | > 100 µM | > 100 µM | > 100 µM | > 100 µM | > 100 µM | > 100 µM | > 100 µM |  | > 100 µM | > 100 µM | > 100 µM | > 100 µM | > 100 µM | > 100 µM | > 100 µM | > 100 µM | > 100 µM | > 100 µM
Nc1ccc(C(=O)NN2C(=O)C(Cl)C2c2cc(Br)ccc2O)cc1 (configuration not stated) | > 100 µM | > 100 µM | > 100 µM | > 100 µM | 78.8 µM | > 100 µM | > 100 µM |  | > 100 µM |  | > 100 µM | > 100 µM | > 100 µM | > 100 µM | > 100 µM | > 100 µM | > 100 µM | > 100 µM
CN(C(=O)c1ccc(Cl)cc1)C(=S)N1CCN(c2ccccn2)CC1 |  | > 100 µM | > 100 µM |  | > 100 µM | > 100 µM | > 100 µM | > 100 µM | > 100 µM | > 100 µM | > 100 µM | > 100 µM | > 100 µM | > 100 µM | > 100 µM | > 100 µM | > 100 µM | > 100 µM
C=CCN(N=O)C(=O)N(CCCC(NC(C)=O)C(=O)NCc1ccccc1)Cc1ccccc1 (configuration not stated) | > 100 µM | > 100 µM | > 100 µM | > 100 µM | 52.9 µM |  | > 100 µM | 58.3 µM | > 100 µM | > 100 µM | > 100 µM | 93.8 µM | > 100 µM | > 100 µM | > 100 µM | > 100 µM | > 100 µM | > 100 µM

Source: PubChem BioAssay (NCI)
